# From patent US8058242B2, “Chimeric proteins with natriuretic activity” (The University of Queensland, priority 2004, dated 2011)
# Positions of bridges follow the written chain, without caps; N, C: chain ends. Residues, ends and D or L forms follow the SMILES beside them.
# Tested on: rats with chronic heart failure
# Assay: Rat model of chronic heart failure, left coronary artery occlusion, anesthetized (Example 10)
# Details: HF rats
smiles,measurement,setting,value
CC[C@H](C)[C@H](NC(=O)[C@H](CCCCN)NC(=O)[C@H](CO)NC(=O)[C@H](CC(=O)O)NC(=O)[C@@H](N)CO)C(=O)NCC(=O)N[C@@H](CC(N)=O)C(=O)NCC(=O)N[C@H]1CSSC[C@@H](C(=O)N[C@@H](CC(N)=O)C(=O)N[C@@H](CCCNC(=N)N)C(=O)N[C@H](C(=O)N[C@@H](CCSC)C(=O)N[C@@H](CCC(N)=O)C(=O)N[C@@H](CC(N)=O)C(=O)N2CCC[C@H]2C(=O)N2CCC[C@H]2C(=O)N[C@@H](CCCCN)C(=O)N[C@@H](CCCCN)C(=O)N[C@@H](Cc2ccccc2)C(=O)N[C@@H](CO)C(=O)NCC(=O)N[C@@H](CCC(=O)O)C(=O)O)[C@@H](C)CC)NC(=O)CNC(=O)[C@H](CC(C)C)NC(=O)CNC(=O)[C@H](CO)NC(=O)[C@H](C(C)C)NC(=O)[C@H](CO)NC(=O)CNC(=O)[C@H]([C@@H](C)CC)NC(=O)[C@H](CCCNC(=N)N)NC(=O)[C@H](CC(=O)O)NC(=O)[C@H](CC(C)C)NC(=O)[C@@H]2CCCN2C(=O)[C@H](Cc2ccccc2)NC(=O)CNC(=O)[C@H](Cc2ccccc2)NC1=O [TNPc] (H-SDSKIGNGCFGFPLDRIGSVSGLGCNRIMQNPPKKFSGE-OH; disulfide 9-25),"Blood Flow, mean change from control","50 pmol/kg/min, 30 min",-1.6 mL/min
same,"Conductance, mean change from control","50 pmol/kg/min, 30 min",−0.2 ml/min/mmHg
same,"Diastolic LVP, mean change from control","50 pmol/kg/min, 30 min",−0.9 mmHg
same,"HCT, mean change from control","50 pmol/kg/min, 30 min",1.5%
same,"HR, mean change from control","50 pmol/kg/min, 30 min",−5.2 bpm
same,"Mean BP, mean change from control","50 pmol/kg/min, 30 min",−11.8 mmHg
same,"Urine Flow, mean change from control","50 pmol/kg/min, 30 min",1.0 mL/h
same,"Blood Flow, mean change from control","100 pmol/kg/min, 30 min",-2.9 mL/min
same,"Conductance, mean change from control","100 pmol/kg/min, 30 min",−0.4 ml/min/mmHg
same,"Diastolic LVP, mean change from control","100 pmol/kg/min, 30 min",−1.6 mmHg
same,"HCT, mean change from control","100 pmol/kg/min, 30 min",2.4%
same,"HR, mean change from control","100 pmol/kg/min, 30 min",−14.8 bpm
same,"Mean BP, mean change from control","100 pmol/kg/min, 30 min",−20.1 mmHg
same,"Urine Flow, mean change from control","100 pmol/kg/min, 30 min",1.7 mL/h
same,"Blood Flow, mean change from control",Recovery,-0.5 mL/min
same,"Conductance, mean change from control",Recovery,0.6 ml/min/mmHg
same,"Diastolic LVP, mean change from control",Recovery,−1.4 mmHg
same,"HCT, mean change from control",Recovery,0.8%
same,"HR, mean change from control",Recovery,−16.5 bpm
same,"Mean BP, mean change from control",Recovery,−13.6 mmHg
same,"Urine Flow, mean change from control",Recovery,0.9 mL/h
same,"Blood Flow, Average drug response SED",average of the two doses,-2.2 ± 0.5 mL/min
same,"Conductance, Average drug response SED",average of the two doses,−0.3 ± 0.3 ml/min/mmHg
same,"Diastolic LVP, Average drug response SED",average of the two doses,−1.2±0.5 mmHg
same,"HCT, Average drug response SED",average of the two doses,1.9 ± 0.5%
same,"HR, Average drug response SED",average of the two doses,−10.0 ± 6.9 bpm
same,"Mean BP, Average drug response SED",average of the two doses,−15.9±4.1 mmHg
